# Assay results: EP2876105A1, “1-(CYCLOALKYL-CARBONYL)PROLINE DERIVATIVE” (Sumitomo Dainippon Pharma Co., Ltd., priority 2012, dated 2014)
# Read-outs that look alike come from different tables or passages of the source.
# Target: human FXIa (Homo sapiens, UniProt P03951)
# Assay: In vitro activated factor XI (FXIa) inhibition test
# Type: biochemical
# Protocol: To the substrate, S-2366 (pyroGlu-Pro-Arg-pNA•HCl) was added to a final concentration of 300 µmol/L. After the reaction had progressed, the absorbance at OD 405 nm was measured. […]
# [1] = 0.35 µg/mL human FXIa, substrate S-2366 300 µmol/L, 37°C, 10 minutes, OD 405 nm, read-out: FXIa inhibitory activity IC50
# Chain of human FXIa (P03951 388-625 limits assumed): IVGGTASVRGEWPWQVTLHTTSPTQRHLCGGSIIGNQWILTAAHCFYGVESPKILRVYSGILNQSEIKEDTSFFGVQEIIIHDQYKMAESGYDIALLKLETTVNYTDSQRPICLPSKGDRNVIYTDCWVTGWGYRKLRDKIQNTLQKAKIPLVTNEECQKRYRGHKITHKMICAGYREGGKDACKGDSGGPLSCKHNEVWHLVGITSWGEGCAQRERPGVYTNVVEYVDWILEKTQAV
# Chain of human FXIa (P03951 19-387 partner limits assumed): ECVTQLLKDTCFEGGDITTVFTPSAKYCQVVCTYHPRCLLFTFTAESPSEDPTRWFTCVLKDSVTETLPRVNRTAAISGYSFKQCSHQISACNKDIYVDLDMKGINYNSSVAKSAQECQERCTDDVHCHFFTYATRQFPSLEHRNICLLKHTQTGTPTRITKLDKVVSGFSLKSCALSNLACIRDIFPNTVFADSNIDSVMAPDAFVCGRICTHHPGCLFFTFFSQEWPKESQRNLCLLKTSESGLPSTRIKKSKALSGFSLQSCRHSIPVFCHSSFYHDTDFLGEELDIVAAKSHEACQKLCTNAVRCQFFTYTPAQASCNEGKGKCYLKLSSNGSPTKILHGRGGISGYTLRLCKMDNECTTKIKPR
Structure (SMILES),IC50,IC50 [1]
N[C@H](CF)[C@H]1CC[C@H](C(=O)N2CC[C@@H](C3CCCCC3)[C@H]2C(=O)Nc2ccc3oc(C(=O)NS(=O)(=O)N4CCOCC4)cc3c2)CC1 [compound 212],8 nM,–
CC(N)[C@H]1CC[C@H](C(=O)N2CC[C@H](c3ccccc3)[C@H]2C(=O)Nc2ccc3oc(C(=O)O)cc3c2)CC1 (stereo partly shown) [compound 46],–,90 nM
NC[C@H]1CC[C@H](C(=O)N2CC[C@@H](c3ccccc3)[C@H]2C(=O)Nc2ccc(-c3nc(=O)o[nH]3)c(F)c2)CC1 [compound 14],–,130 nM
CN(C)S(=O)(=O)NC(=O)c1cc2cc(NC(=O)[C@@H]3[C@H](C4CCCCC4)CCN3C(=O)[C@H]3CC[C@H]([C@H](N)CF)CC3)ccc2o1 [compound 211],–,29 nM
N[C@H](CF)[C@H]1CC[C@H](C(=O)N2CC[C@@H](C3CCCCC3)[C@H]2C(=O)Nc2ccc(C(=O)NS(=O)(=O)c3ccccn3)cc2)CC1 [compound 134],54 nM,–
Cc1c(C(=O)O)oc2ccc(NC(=O)[C@@H]3[C@H](C4CCCCC4)CCN3C(=O)[C@H]3CC[C@H]([C@H](N)CF)CC3)cc12 [compound 55],–,220 nM
N[C@H](C(F)F)[C@H]1CC[C@H](C(=O)N2CC[C@@H](C3CCCCC3)[C@H]2C(=O)Nc2ccc3oc(C(=O)O)cc3c2)CC1 [compound 146],–,916 nM
N[C@H](CF)[C@H]1CC[C@H](C(=O)N2CC[C@@H](C3CCCCC3)[C@H]2C(=O)Nc2ccc(C(=O)O)cc2)CC1 [compound 96],–,98 nM
NC(CF)[C@H]1CC[C@H](C(=O)N2CC[C@@H](C3CCCCC3)[C@H]2C(=O)Nc2ccc3oc(C(=O)O)cc3c2)CC1 (stereo partly shown) [compound 50],84 nM,–
N[C@H](CF)[C@H]1CC[C@H](C(=O)N2CC[C@H](c3ccccc3)[C@H]2C(=O)Nc2ccc3[nH]c(C(=O)NS(=O)(=O)N4CCOCC4)cc3c2)CC1 [compound 122],690 nM,–
COC1CCC([C@@H]2CCN(C(=O)[C@H]3CC[C@H]([C@H](N)CF)CC3)[C@@H]2C(=O)Nc2ccc3oc(C(=O)O)cc3c2)CC1 (stereo partly shown) [compound 102],93 nM,–
COC(=O)Nc1nc2ccc(NC(=O)[C@@H]3[C@H](C4CCCCC4)CCN3C(=O)[C@H]3CC[C@H]([C@H](N)CF)CC3)cc2s1 [compound 148],–,140 nM
CS(=O)(=O)NC(=O)c1ccc(NC(=O)[C@@H]2[C@H](C3CCCCC3)CCN2C(=O)[C@H]2CC[C@H]([C@H](N)CF)CC2)cc1 [compound 147],–,205 nM
COC1CCC([C@H]2CCN(C(=O)[C@H]3CC[C@H]([C@H](N)CF)CC3)[C@H]2C(=O)Nc2ccc3oc(C(=O)O)cc3c2)CC1 (stereo partly shown) [compound 187],285 nM,–
N[C@H](CF)[C@H]1CC[C@H](C(=O)N2CC[C@@H](C3CCCCC3)[C@H]2C(=O)Nc2ccc3oc(C(=O)NS(=O)(=O)c4ccccc4)cc3c2)CC1 [compound 121],43 nM,–
N[C@H](CF)[C@H]1CC[C@H](C(=O)N2CC[C@@H](C3CCCCC3)[C@H]2C(=O)Nc2ccc(C(=O)NCc3ccccn3)cc2)CC1 [compound 137],380 nM,–
Cc1c(C(=O)O)[nH]c2ccc(NC(=O)[C@@H]3[C@H](C4CCCCC4)CCN3C(=O)[C@H]3CC[C@H](C(N)CF)CC3)cc12 (stereo partly shown) [compound 39],–,63 nM
Cc1noc(-c2ccc(NC(=O)[C@@H]3[C@H](C4CCCCC4)CCN3C(=O)[C@H]3CC[C@H]([C@H](N)CF)CC3)cc2)n1 [compound 115],–,1500 nM
N[C@H](CF)[C@H]1CC[C@H](C(=O)N2CC[C@@H](C3CCCCC3)[C@H]2C(=O)Nc2ccc(C(=O)NS(=O)(=O)c3ccccc3)cc2)CC1 [compound 118],65 nM,–
COC1CCC([C@@H]2CCN(C(=O)[C@H]3CC[C@H]([C@H](N)CF)CC3)[C@@H]2C(=O)Nc2ccc3oc(C(=O)O)cc3c2)CC1 (stereo partly shown) [compound 103],–,2350 nM
N[C@H](CF)[C@H]1CC[C@H](C(=O)N2CC[C@@H](C3CCCCC3)[C@H]2C(=O)Nc2ccc(C(=O)NS(=O)(=O)c3ccccc3)c(F)c2)CC1 [compound 133],–,99 nM
N[C@H](CF)[C@H]1CC[C@H](C(=O)N2CC[C@@H](C3CCCCC3)[C@H]2C(=O)Nc2ccc3[nH]c(C(=O)O)c(Cl)c3c2)CC1 [compound 184],–,30 nM
